Data set [1] concerns the target T1, Protein-arginine deiminase type-1 (Homo sapiens) (UniProt Q9ULC6).
T1 sequence (whole entry): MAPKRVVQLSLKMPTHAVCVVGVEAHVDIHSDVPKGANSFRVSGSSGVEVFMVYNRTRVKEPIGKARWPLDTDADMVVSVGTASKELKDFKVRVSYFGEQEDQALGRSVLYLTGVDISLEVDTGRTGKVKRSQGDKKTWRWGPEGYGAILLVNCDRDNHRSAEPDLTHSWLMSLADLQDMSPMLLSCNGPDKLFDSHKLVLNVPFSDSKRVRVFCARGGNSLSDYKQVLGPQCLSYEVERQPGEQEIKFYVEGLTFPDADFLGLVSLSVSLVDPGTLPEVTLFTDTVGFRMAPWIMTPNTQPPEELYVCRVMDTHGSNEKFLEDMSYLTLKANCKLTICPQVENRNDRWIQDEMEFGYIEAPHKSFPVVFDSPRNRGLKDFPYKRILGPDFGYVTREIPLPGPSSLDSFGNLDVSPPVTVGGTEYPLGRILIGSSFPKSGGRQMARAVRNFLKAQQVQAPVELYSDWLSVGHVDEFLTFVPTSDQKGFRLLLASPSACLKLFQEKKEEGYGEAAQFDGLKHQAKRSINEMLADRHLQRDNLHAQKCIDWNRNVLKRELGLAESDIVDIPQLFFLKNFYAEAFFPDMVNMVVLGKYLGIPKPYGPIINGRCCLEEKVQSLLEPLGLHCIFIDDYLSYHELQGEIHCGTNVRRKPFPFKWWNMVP
Nature of the data set: Inhibition of human PAD1 up to 10 mM using benzoyl arginine ethylester as substrate preincubated for 30 mins followed by substrate addition measured after 30 mins by colorimetric assay.

For data set [2], the target named is T2, Protein-arginine deiminase type-4 (Homo sapiens, UniProt Q9UM07). The data set is described as follows: Inhibition of full length recombinant human N-terminal GST-tagged PAD4 expressed in baculovirus infected Sf9 cells using benzoyl arginine ethylester as substrate preincubated for 30 mins followed by substrate addition measured after 30 mins by colorimetric assay.
T2 sequence (Q9UM07 whole entry): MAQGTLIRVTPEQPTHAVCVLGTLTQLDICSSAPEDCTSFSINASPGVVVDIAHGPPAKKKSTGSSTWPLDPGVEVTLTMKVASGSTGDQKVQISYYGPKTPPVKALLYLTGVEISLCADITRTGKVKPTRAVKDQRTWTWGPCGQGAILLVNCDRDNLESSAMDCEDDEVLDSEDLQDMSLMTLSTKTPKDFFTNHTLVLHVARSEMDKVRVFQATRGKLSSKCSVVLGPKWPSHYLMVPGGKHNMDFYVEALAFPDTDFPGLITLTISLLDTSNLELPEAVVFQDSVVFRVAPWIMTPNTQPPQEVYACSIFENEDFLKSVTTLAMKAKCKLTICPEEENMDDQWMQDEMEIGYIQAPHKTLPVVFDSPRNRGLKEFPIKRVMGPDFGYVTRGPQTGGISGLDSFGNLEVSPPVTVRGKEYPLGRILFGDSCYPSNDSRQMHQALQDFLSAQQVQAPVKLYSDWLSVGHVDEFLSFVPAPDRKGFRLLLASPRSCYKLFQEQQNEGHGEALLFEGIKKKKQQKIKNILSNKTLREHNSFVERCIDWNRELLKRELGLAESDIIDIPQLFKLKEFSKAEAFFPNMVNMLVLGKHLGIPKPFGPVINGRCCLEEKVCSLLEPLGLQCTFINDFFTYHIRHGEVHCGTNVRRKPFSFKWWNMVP

For data set [3], the target named is Protein-arginine deiminase type-2 (Mus musculus) (UniProt Q08642). Nature of the data set: Inhibition of full length recombinant mouse N-terminal GST-tagged PAD2 expressed in baculovirus infected Sf9 cells up to 10 mM using benzoyl arginine ethyl ester as substrate preincubated for 30 mins followed by substrate addition measured after 30 mins by colorimetric assay.
Chain of Protein-arginine deiminase type-2 (Mus musculus) (Q08642 whole entry): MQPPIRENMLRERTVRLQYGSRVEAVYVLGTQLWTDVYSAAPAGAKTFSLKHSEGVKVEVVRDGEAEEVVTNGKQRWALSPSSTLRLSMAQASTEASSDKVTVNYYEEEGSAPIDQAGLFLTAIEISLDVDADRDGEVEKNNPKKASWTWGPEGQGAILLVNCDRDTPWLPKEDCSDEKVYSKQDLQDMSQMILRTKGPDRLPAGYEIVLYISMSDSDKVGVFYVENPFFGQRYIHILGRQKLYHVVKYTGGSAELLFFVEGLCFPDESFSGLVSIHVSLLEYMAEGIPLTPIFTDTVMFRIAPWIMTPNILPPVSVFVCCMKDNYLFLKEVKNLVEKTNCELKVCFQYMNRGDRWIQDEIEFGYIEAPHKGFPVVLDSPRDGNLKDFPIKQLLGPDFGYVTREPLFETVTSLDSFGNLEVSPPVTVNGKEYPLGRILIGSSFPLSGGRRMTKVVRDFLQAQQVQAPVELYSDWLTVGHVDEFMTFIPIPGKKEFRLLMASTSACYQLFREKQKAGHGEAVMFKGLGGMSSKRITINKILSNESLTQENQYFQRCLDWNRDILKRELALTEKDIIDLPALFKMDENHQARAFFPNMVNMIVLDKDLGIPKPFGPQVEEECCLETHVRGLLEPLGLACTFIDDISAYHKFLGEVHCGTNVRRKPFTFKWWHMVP

Data set [4] has as its target T2, Protein-arginine deiminase type-4. Nature of the data set: Inhibition of full length recombinant human N-terminal GST-tagged PAD4 expressed in baculovirus infected Sf9 cells up to 10 mM using benzoyl arginine ethylester as substrate preincubated for 30 mins followed by substrate addition measured after 30 mins by colorimetric assay.
For data set [5], the target named is Protein-arginine deiminase type-2 (Mus musculus, UniProt Q08642). Nature of the data set: Inhibition of full length recombinant mouse N-terminal GST-tagged PAD2 expressed in baculovirus infected Sf9 cells using benzoyl arginine ethyl ester as substrate preincubated for 30 mins followed by substrate addition measured after 30 mins by colorimetric assay.
Chain of Protein-arginine deiminase type-2 (Q08642 whole entry): as above
Data set [6] has as its system Mus musculus. The data set is described as follows: Neuroprotective activity in CPZ-induced demyelination C57BL/6 mouse model assessed as increase in myelin content at 100 mg/kg, ip dosed daily for 6 weeks measured post last dose by LFB staining based immunohistochemical method. The format is functional, organism-based.
Data set [7] in a line: AUC (0 to 360 mins) in C57BL/6 mouse brain at 100 mg/kg, ip administered as single dose by UPLC-MS analysis. The format is ADME, organism-based. Also noted: dose 100 mg/kg, time < 6 hr, route intraperitoneal.
Data set [8] has as its system Mus musculus. Nature of the data set: Antiinflammatory activity in ip dosed MOG peptide/complete freund's adjuvant/pertussis toxin-induced C57BL/6 mouse autoimmune encephalomyelitis model assessed as improvement in physical disability administered once daily for 40 days measured daily during compound dosing. The format is functional, organism-based.
Data set [9] is described as follows: Tmax in C57BL/6 mouse brain at 100 mg/kg, ip administered as single dose by UPLC-MS analysis. The format is ADME, organism-based.
Data set [10] has as its system Mus musculus. Nature of the data set: Antiinflammatory activity in MOG peptide/complete freund's adjuvant/pertussis toxin-induced C57BL/6 mouse autoimmune encephalomyelitis model assessed as improvement in physical disability at 50 mg/kg, ip administered once daily for 40 days measured daily during compound dosing. The format is functional, organism-based.
Data set [11] in a line: Toxicity in MOG peptide/complete freund's adjuvant/pertussis toxin-induced C57BL/6 mouse autoimmune encephalomyelitis model assessed as death at 50 mg/kg, ip administered once daily for 40 days measured during compound dosing (reference value: 20%). The format is organism-based. To be noted: in vivo, read-out: Activity.
In data set [12] the test system is Mus musculus. The data set is described as follows: Toxicity in MOG peptide/complete freund's adjuvant/pertussis toxin-induced C57BL/6 mouse autoimmune encephalomyelitis model assessed as change in body weight at 50 mg/kg, ip administered once daily for 40 days measured during compound dosing. To be noted: in vivo, 960 h. The format is organism-based.
Data set [13] is described as follows: Elimination rate constant in C57BL/6 mouse brain at 100 mg/kg, ip administered as single dose by UPLC-MS analysis. The format is ADME, organism-based.
Data set [14] can be described thus: Toxicity in MOG peptide/complete freund's adjuvant/pertussis toxin-induced C57BL/6 mouse autoimmune encephalomyelitis model assessed as death at 100 mg/kg, ip administered once daily for 40 days measured during compound dosing (reference value: 21%). The format is organism-based. The note with it: in vivo, read-out: Activity.
The nature of data set [15]: Cmax in C57BL/6 mouse brain at 100 mg/kg, ip administered as single dose by UPLC-MS analysis. The format is ADME, organism-based. The arrangement: dose 100 mg/kg, route intraperitoneal.
Data set [16] deals with Mus musculus. The data set is described as follows: Antiinflammatory activity in MOG peptide/complete freund's adjuvant/pertussis toxin-induced C57BL/6 mouse autoimmune encephalomyelitis model assessed as reduction in accumulation of CD3 positive cells in brain at 100 mg/kg, ip administered once daily for 40 days measured post last dose. The format is functional, organism-based.

In data set [17] the test system is Mus musculus. Nature of the data set: Toxicity in MOG peptide/complete freund's adjuvant/pertussis toxin-induced C57BL/6 mouse autoimmune encephalomyelitis model assessed as change in body weight at 100 mg/kg, ip administered once daily for 40 days measured during compound dosing. The format is organism-based. The note with it: in vivo, 960 h.
Data set [18] is described as follows: Half life in C57BL/6 mouse brain at 100 mg/kg, ip administered as single dose by UPLC-MS analysis. The format is ADME, organism-based.
Data set [19] concerns Mus musculus. Nature of the data set: Antiinflammatory activity in MOG peptide/complete freund's adjuvant/pertussis toxin-induced C57BL/6 mouse autoimmune encephalomyelitis model assessed as reduction in accumulation of MAC3 positive cells in brain at 100 mg/kg, ip administered once daily for 40 days measured post last dose. The format is functional, organism-based.
The nature of data set [20]: AUC (0 to 360 mins) in C57BL/6 mouse serum at 100 mg/kg, ip administered as single dose by UPLC-MS analysis. The arrangement: time < 6 hr, dose 100 mg/kg, route intraperitoneal. The format is ADME, organism-based.
Data set [21] relates to Mus musculus. The data set is described as follows: Antiinflammatory activity in MOG peptide/complete freund's adjuvant/pertussis toxin-induced C57BL/6 mouse autoimmune encephalomyelitis model assessed as reduction in inflammatory lesions in brain at 100 mg/kg, ip administered once daily for 40 days measured post last dose by hematoxylin and eosin/Luxol-fast blue staining based assay. The format is functional, organism-based.

In data set [22] the test system is Mus musculus. The data set is described as follows: Antiinflammatory activity in MOG peptide/complete freund's adjuvant/pertussis toxin-induced C57BL/6 mouse autoimmune encephalomyelitis model assessed as increase in myelin content at 100 mg/kg, ip administered once daily for 40 days measured post last dose by LFB /H and E staining based assay. The format is functional, organism-based.

The nature of data set [23]: Half life in C57BL/6 mouse serum at 100 mg/kg, ip administered as single dose by UPLC-MS analysis. The format is ADME, organism-based.
Data set [24] concerns Mus musculus. The data set is described as follows: Antiinflammatory activity MOG peptide/complete freund's adjuvant/pertussis toxin-induced C57BL/6 mouse autoimmune encephalomyelitis model assessed as reduction in scar tissue around blood vessels in brain at 100 mg/kg, ip administered once daily for 40 days measured post last dose by LFB/H and E staining based assay. The format is functional, organism-based.

In data set [25] the test system is Mus musculus. The data set is described as follows: Antiinflammatory activity in MOG peptide/complete freund's adjuvant/pertussis toxin-induced C57BL/6 mouse autoimmune encephalomyelitis model assessed as improvement in physical disability at 100 mg/kg, ip administered once daily for 40 days measured daily during compound dosing. The format is functional, organism-based.

The nature of data set [26]: Elimination rate constant in C57BL/6 mouse serum at 100 mg/kg, ip administered as single dose by UPLC-MS analysis. The format is ADME, organism-based.
Data set [27] can be described thus: Cmax in C57BL/6 mouse serum at 100 mg/kg, ip administered as single dose by UPLC-MS analysis. Also noted: dose 100 mg/kg, route intraperitoneal. The format is ADME, organism-based.
A short description of data set [28]: Tmax in C57BL/6 mouse serum at 100 mg/kg, ip administered as single dose by UPLC-MS analysis. The format is ADME, organism-based.
Data set [29] addresses T3, Protein-arginine deiminase type-1 (Homo sapiens, UniProt Q9ULC6).
T3 sequence (Q9ULC6 whole entry): T1 sequence (whole entry)
Nature of the data set: Inhibition of human PAD1 using BAEE as substrate preincubated for 30 mins followed by substrate addition measured after 30 mins by colorimetric assay.

Consider 14 compounds from ChEMBL document CHEMBL4028813, “Inhibitors of protein arginine deiminases and their efficacy in animal models of multiple sclerosis” (Bioorg Med Chem, 2017).

SMILES strings stand for the structures. Calls of active or inactive are those of the source. The calls are words filed in the database; no cut-off is given here.

By Ki is commonly meant a measure of affinity in units of concentration, obtained from inhibition or displacement. `CC1(C)NC(=O)N(CCN2CCCC2)C1=O`: the inhibition entry in data set [1] and in [3] was “inactive” each time. Besides, the Ki in data set [2] was determined as 4640 µM.
`Cc1cnc(C)n1CCN1C(=O)NC(C)(C)C1=O`: the inhibition result in data set [1], in data set [3] and in [4] was “inactive” throughout.
Turning to `CC(C)c1nccn1CCN1C(=O)NC(C)(C)C1=O`, the inhibition result in data set [1], in [3] and in data set [4] was “inactive” each time.
In the case of `Cc1cn(CCN2C(=O)NC(C)(C)C2=O)cn1`, the inhibition result in [1], in data set [3] and in data set [4] was “inactive” in each case.
`CC1(C)NC(=O)N(CCn2ccnn2)C1=O`: the inhibition result in [1], in data set [3] and in [4] was “inactive” throughout.
As to `CC1(C)NC(=O)N(CCN2CCNCC2)C1=O`, the inhibition entry in data set [1] and in [4] was “inactive” in each case. Moreover, the Ki in data set [5] is 714 µM.
As for `CN1CCN(CCN2C(=O)NC(C)(C)C2=O)CC1`, the inhibition entry in data set [1], in data set [3] and in data set [4] was “inactive” throughout.
Regarding `CC1(C)NC(=O)N(CCn2cncc2CO)C1=O`, the inhibition result in data set [1], in data set [3] and in [4] was “inactive” throughout.
Broadly, the AUC(0-t) is exposure summed from dosing to a finite time, without extrapolation to infinity. Read a low AUC(0-t) as low exposure. By Tmax is commonly meant the time from dosing to the highest level. As a reminder, the Cmax is the highest concentration seen after dosing. By half-life is commonly meant how long it takes for the measured level to halve. High values mean slow loss, low ones fast loss. For `CC1(C)NC(=O)N(CCn2ccnc2)C1=O`, the result in the data set with Mus musculus [6], in the data set on Mus musculus [16], in the data set on Mus musculus [19], in the data set with Mus musculus [21], in the data set with Mus musculus [22] and in the data set with Mus musculus [24] was Active. In addition, the outcome in the data set on Mus musculus [25] was Active. Also, the AUC(0-t) at 6 h was 12.3 ng·h/mL in [7] and 28000 ng·h/mL in data set [20]. Further, the inhibition entry in [1] is “inactive”. Further, the Ki worked out at 632 µM in data set [2] and 4620 µM in data set [5]. Moreover, the results for the Activity entry in the data set with Mus musculus [8], in the data set with Mus musculus [12] and in the data set on Mus musculus [17] were “Dose-dependent effect”, “Non-Toxic” and “Non-Toxic”, respectively. Also, the Tmax in data set [9] was 45 min; in data set [28], 5 min. Also, the result in the data set on Mus musculus [10] was inactive. The results for the mortality at 960 h in data set [11] and in [14] were 29% and 0%, respectively. Besides, the k el was 0.000117 s⁻¹ in data set [13] and 0.000917 s⁻¹ in data set [26]. Moreover, the Cmax in [15] came to 7.3 ng/mL; in [27] it was 79900 ng/mL. Also, the half-life was determined as 99 min in data set [18] and 12.6 min in [23].
In the case of `CC1(C)NC(=O)N(CN2CCNCC2)C1=O`, the Ki in data set [2] was determined as 183 µM; in data set [29], 445 µM; in [5], 179 µM. Besides, the Activity result with Mus musculus [17] is given as “Non-Toxic”. Further, the result in the data set on Mus musculus [25] was Active.
For the compound `CC1(C)NC(=O)N(CCN2CCOCC2)C1=O`, the Ki in data set [2] is 1430 µM; in data set [29] it was 602 µM.
Regarding `CC1(C)NC(=O)N(CCc2nnn[nH]2)C1=O`, the mortality at 960 h in data set [14] turned out to be 8%. Further, the outcome in the data set on Mus musculus [16], in the data set with Mus musculus [19], in the data set with Mus musculus [21] and in the data set with Mus musculus [25] was Active. Moreover, the Ki in data set [29] amounted to 384 µM; in data set [5], 30 µM. In addition, in the data set on Mus musculus [17], the Activity entry is listed as “Non-Toxic”.
For the compound `Cc1nccn1CCN1C(=O)NC(C)(C)C1=O`, in data set [29], affinity was put at a Ki of 2420 µM. The inhibition entry in [3] and in data set [4] was “inactive” in each case.
As for `CC1(C)NC(=O)N(CCn2cncn2)C1=O`, the inhibition result in data set [1], in [3] and in [4] was “inactive” each time.
